Reference: US7691575B2, “Immunomodulatory compositions” (Academia Sinica, priority 2005, dated 2010)

Tested on: human IFN γ promoter
Assay: IFN γ promoter reporter assay (dual luciferase, pIFN γ-Luc/pRL-TK) in transfected Jurkat cells
Assay type: cell-based
Method: Jurkat cells were transfected with pIFN γ-Luc and pRL-TK, or pIL-2 and pRL-TK, plasmid DNA constructs using electroporation and then treated with different plant crude extracts, which were prepared using boiling water. The fold induction was expressed in arbitrary units as the ratio of firefly luciferase activity (encoded by pIFN γ-Luc) to that of Renilla luciferase (pRL-TK).
A 615 base pair (bp) DNA fragment containing the human IFN γ promoter region from bp −487 to +128 (SEQ ID NO:1) was amplifed by polymerase chain reaction (PCR) using the specific primers (5′-[…]-3′ (SEQ ID NO:3) and 5′-[…]-3′ (SEQ ID NO:4))and human genomic DNA, isolated from blood, as a template. […]
Firefly and Renilla luciferase activities were measured in cell lysates made from transfected T-cells that were exposed to a plant extract or phytocompound, or underwent negative control treatment. […] The protein concentration in each lysate was determined using a Bradford reagent protein assay (Bio-Rad, Calif.).
Samples of ten micrograms of cell lysate protein were subjected to a dual luciferase reporter assay according to the manufacturer's instructions (Promega, Wis.). Firefly and Renilla luciferase activities were determined in each sample with a luminometer. […] The IFN γ or IL-2 promoter activity for each sample was calculated as a ratio of firefly luciferase to Renilla luciferase-dependent luminescence.

Row | SMILES | IFN γ promoter activity (concentration not given) | IFN γ promoter activity (100 μg/mL, relative to untreated cells, p<0.001)
1 | O=C(/C=C/c1ccc(O)c(O)c1)O[C@@H]1[C@H](O)C[C@@](O)(C(=O)O)C[C@H]1OC(=O)/C=C/c1ccc(O)c(O)c1 [4,5-di-O-caffeoylquinic acid] | did not induce a significant increase | –
2 | COc1ccc(-c2oc3cc(O[C@@H]4O[C@H](CO)[C@@H](O)[C@H](O)[C@H]4O)c(OC)c(O)c3c(=O)c2OC)cc1O [Centaurein, centaurein] | – | highly significant increase
